Measurements from the supplement of paper PMC10307832.

Experiments:
Test in all cases: relative viability (nuclei count vs DMSO), 5 days (fraction); higher = more cells survive
[1] = compound: CN[C@@H]1C[C@H]2O[C@@](C)([C@@H]1OC)n1c3ccccc3c3c4c(c5c6ccccc6n2c5c31)C(=O)NC4 [Staurosporine] + N=C(N)NC(=N)NCCc1ccccc1 [Phenformin] (partner 250 µM)
Outline: (§1)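 Relative viability was taken as the ratio of nuclei in treated wells to nuclei in vehicle wells. Lung cancer cell lines in 1536-well plates received compounds by pin tool one day after seeding, either one drug alone or a fixed anchor-drug dose plus five library-drug doses (not always all listed) in √10 steps. Nuclei were counted on 4× images after 5 days of treatment, and values are medians of duplicate plates.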

[2] = compound: O=c1[nH]cc(F)c(=O)[nH]1 [5-Fluorouracil] + C[C@@H](Oc1cc(-c2cnn(C3CCNCC3)c2)cnc1N)c1c(Cl)ccc(F)c1Cl [Crizotinib] (partner 1 µM)
Outline: as §1

[3] = compound: CN[C@@H]1C[C@H]2O[C@@](C)([C@@H]1OC)n1c3ccccc3c3c4c(c5c6ccccc6n2c5c31)C(=O)NC4 [Staurosporine] + CS(=O)(=O)CCNCc1ccc(-c2ccc3ncnc(Nc4ccc(OCc5cccc(F)c5)c(Cl)c4)c3c2)o1 [Lapatinib] (partner 2 µM)
Outline: as §1

Staurosporine + OSI-027 = compound: CN[C@@H]1C[C@H]2O[C@@](C)([C@@H]1OC)n1c3ccccc3c3c4c(c5c6ccccc6n2c5c31)C(=O)NC4 [Staurosporine] + COc1cccc2cc(-c3nc([C@H]4CC[C@H](C(=O)O)CC4)n4ncnc(N)c34)[nH]c12 [OSI-027] (partner 0.5 µM)
Outline: as §1

For UMC-11, the relative viability ([1]; first compound 0.005 µM) was 0.305, the relative viability ([1]; first compound 0.01581 µM) was 0.168 and the relative viability ([1]; first compound 0.05 µM) was 0.135. It also gave a relative viability ([1]; first compound 0.1581 µM) of 0.0915, a relative viability ([1]; first compound 0.5 µM) of 0.13 and a relative viability ([2]; first compound 0.02 µM) of 0.52. It also gave a relative viability ([2]; first compound 0.2 µM) of 0.441, a relative viability ([2]; first compound 0.6325 µM) of 0.303 and a relative viability ([2]; first compound 2 µM) of 0.232. It also gave a relative viability ([3]; first compound 0.005 µM) of 1.14, a relative viability ([3]; first compound 0.01581 µM) of 0.158 and a relative viability ([3]; first compound 0.05 µM) of 0.408. For the same cell line, the relative viability ([3]; first compound 0.1581 µM) was 0.141, the relative viability ([3]; first compound 0.5 µM) was 0.0855 and the relative viability (Staurosporine + OSI-027; first compound 0.005 µM) was 0.5. The relative viability (Staurosporine + OSI-027; first compound 0.01581 µM) was 0.151, the relative viability (Staurosporine + OSI-027; first compound 0.05 µM) was 0.138 and the relative viability (Staurosporine + OSI-027; first compound 0.1581 µM) was 0.133. It also gave a relative viability (Staurosporine + OSI-027; first compound 0.5 µM) of 0.116.
